The results in this text go back to patent US20070275962A1, “Heterobicyclic Compounds as Pharmaceutically Active Agents” (GPC BIOTECH AG, priority 2003, published 2007).

The target of the assay is T1, mycobacterial protein kinase G (PknG) (Mycobacterium tuberculosis, UniProt P9WI73).
T1 construct: GST; made in house; host or cells: E. coli BL21
T1 sequence (P9WI73 whole entry): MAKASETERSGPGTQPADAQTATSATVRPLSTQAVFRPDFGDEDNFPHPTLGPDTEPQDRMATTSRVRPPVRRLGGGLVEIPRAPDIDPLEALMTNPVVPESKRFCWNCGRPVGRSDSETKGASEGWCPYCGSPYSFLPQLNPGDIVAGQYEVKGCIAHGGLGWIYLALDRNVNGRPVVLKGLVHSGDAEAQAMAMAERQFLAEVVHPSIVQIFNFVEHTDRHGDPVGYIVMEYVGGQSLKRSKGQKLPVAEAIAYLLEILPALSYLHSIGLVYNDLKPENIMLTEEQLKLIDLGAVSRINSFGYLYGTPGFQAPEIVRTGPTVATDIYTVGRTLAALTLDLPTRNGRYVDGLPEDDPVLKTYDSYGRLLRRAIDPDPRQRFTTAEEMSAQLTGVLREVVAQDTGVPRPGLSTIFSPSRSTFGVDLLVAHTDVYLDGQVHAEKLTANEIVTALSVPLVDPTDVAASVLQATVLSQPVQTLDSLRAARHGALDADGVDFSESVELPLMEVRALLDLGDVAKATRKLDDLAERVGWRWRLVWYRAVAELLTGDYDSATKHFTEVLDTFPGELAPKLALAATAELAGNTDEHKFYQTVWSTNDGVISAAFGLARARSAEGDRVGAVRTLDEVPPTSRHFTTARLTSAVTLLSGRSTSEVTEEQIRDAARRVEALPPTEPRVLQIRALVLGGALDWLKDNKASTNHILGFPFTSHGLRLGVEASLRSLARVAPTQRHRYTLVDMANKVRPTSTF
Nature of the assay: biochemical. To be noted: read-out: Inhibition of PknG (IC50, [μM]).
As to `NC(=O)c1c(NC(=O)C2CC2)sc2cc(OCC(=O)NCCO)ccc12` [Compound A8, 2-(Cyclopropanecarbonyl-amino)-6-[(2-hydroxy-ethylcarbamoyl)-methoxy]-benzo[b]thiophene-3-carboxylic acid amide], the IC50 was 0.1 to 1 µM.

With `CCN(CC)C(=O)c1cc2c(C(N)=O)c(NC(=O)C3CC3)sc2cc1O` [Compound A17, 2-(Cyclopropanecarbonyl-amino)-6-hydroxy-benzo[b]thiophene-3,5-dicarboxylic acid 3-amide-5-diethylamid], the IC50 lay in the range of 1.1 to 10 µM.

Consider `NC(=O)c1c(NC(=O)C2CC2)sc2cc(OCCO)ccc12` [Compound A20, 2-(Cyclopropanecarbonyl-amino)-6-(2-hydroxy-ethoxy)-benzo[b]thiophene-3-carboxylic acid amide], for which the IC50 was in the range of 0.1 to 1 µM.

As for `NC(=O)c1c(NC(=O)C2CC2)sc2c(Br)c(O)c(Br)cc12` [Compound A38, 5,7-Dibromo-2-(cyclopropanecarbonyl-amino)-6-hydroxy-benzo[b]thiophene-3-carboxylic acid amide], the IC50 was less than 0.1 µM.

Take `NC(=O)c1c(NC(=O)C2CC2)sc2c1CCOC2` [Compound B1, 2-(Cyclopropanecarbonyl-amino)4,7-dihydro-5H-thieno[2,3-c]pyran-3-carboxylic acid amide]: the IC50 lay in the range of 0.1 to 1 µM.

`CC(C)C(=O)Nc1sc2c(c1C(N)=O)CCOC2` [Compound B2, 2-Isobutyrylamino-4,7-dihydro-5H-thieno[2,3-c]pyran-3-carboxylic acid amide]: the IC50 is greater than 10 µM.

On to `NC(=O)c1c(NC(=O)C2CCCC2)sc2c1CCOC2` [Compound B10, 2-(Cyclopentanecarbonyl-amino)-4,7-dihydro-5H-thieno[2,3-c]pyran-3-carboxylic acid amide], for which the IC50 fell in the range of 1.1 to 10 µM.

Turning to `CCC(C)C(=O)Nc1sc2c(c1C(N)=O)CCOC2` (stereo not drawn) [Compound B14, 2-(2-Methyl-butyrylamino)-4 ,7-dihydro-5H-thieno[2,3-c]pyran-3-carboxylic acid amide], the concentration for half-maximal inhibition (IC50) was greater than 10 µM.

As for `NC(=O)c1c(NC(=O)C2CCC2)sc2c1CCOC2` [Compound B15, 2-(Cyclobutanecarbonyl-amino)-4,7-dihydro-5H-thieno[2,3-c]pyran-3-carboxylic acid amide], the IC50 was 1.1 to 10 µM.

For the compound `CC=CC(=O)Nc1sc2c(c1C(N)=O)CCOC2` [Compound B16, 2-But-2-enoylamino-4,7-dihydro-5H-thieno[2,3-c]pyran-3-carboxylic acid amide], the IC50 was in the range of 1.1 to 10 µM.

As for `CC(C)=CC(=O)Nc1sc2c(c1C(N)=O)CCOC2` [Compound B17, 2-(3-Methyl-but-2-enoylamino)-4,7-dihydro-5H-thieno[2,3-c]pyran-3-carboxylic acid amide], the IC50 lay within 1.1 to 10 µM.

As for `CC(C)(C)C(=O)Nc1sc2c(c1C(N)=O)CCOC2` [Compound B18, 2-(2,2-Dimethyl-propionylamino)-4,7-dihydro-5H-thieno[2,3-c]pyran-3-carboxylic acid amide], the IC50 is greater than 10 µM.

Take `NC(=O)c1c(NC(=O)NCCc2cccs2)sc2c1CCOC2` [Compound B75, 2-[3-(2-Thiophen-2-yl-ethyl)-ureido]-4,7-dihydro-5H-thieno[2,3-c]pyran-3-carboxylic acid amide]: the IC50 lay in the range of 0.1 to 1 µM.

Consider `CCOC(=O)N1CCC(NC(=O)Nc2sc3c(c2C(N)=O)CCOC3)CC1` [Compound B181, 4-[3-(3-Carbamoyl-4,7-dihydro-5H-thieno[2,3-c]pyran-2-yl)-ureido]-piperidine-1-carboxylic-acid ethyl ester], for which the IC50 lay in the range of 1.1 to 10 µM.

Turning to `NC(=O)c1c(NC(=O)C2CC2)sc2c1CC[S+]([O-])C2` (stereo not drawn) [Compound C2, 2-(Cyclopropanecarbonyl-amino)-6-oxo-4,5,6,7-tetrahydro-6λ^4-thieno[2,3-c]thiopyran-3-carboxylic acid amide], the half-inhibitory concentration (IC50) was greater than 10 µM.

Turning to `Cc1ccccc1CNC(=O)Nc1sc2c(c1C(N)=O)CCSC2` [Compound C33, 2-[3-(2-Methyl-benzyl)-ureido]-4,7-dihydro-5H-thieno[2,3-c]thiopyran-3-carboxylic acid amide], the half-inhibitory concentration (IC50) is greater than 10 µM.

In the case of `NC(=O)c1c(NC(=O)Nc2ccc(Oc3ccccc3)cc2)sc2c1CCSC2` [Compound C49, 2-[3-(4-Phenoxy-phenyl)-ureido]-4,7-dihydro-5H-thieno[2,3-c]thiopyran-3-carboxylic acid amide], the IC50 was in the range of 1.1 to 10 µM.

On to `NC(=O)c1c(NC(=O)C2CCC2)sc2c1CCCC2` [Compound D9, 2-(Cyclobutanecarbonylamino)-4,5,6,7-tetrahydro-benzo[b]thiophene-3-carboxylic acid amide], for which the IC50 was in the range of 1.1 to 10 µM.

`C=CCNC(=S)Nc1sc2c(c1C(N)=O)CCCC2` [Compound D32, 2-(3-Allyl-thioureido)-4,5,6,7-tetrahydro-benzo[b]thiophene-3-carboxylic acid amide]: the IC50 fell in the range of 1.1 to 10 µM.

Turning to `CC1CCc2sc(NC(=O)C3CC3)c(C(N)=O)c2C1` (stereo not drawn) [Compound D37, 2-(Cyclopropanecarbonyl-amino)-5-methyl-4,5,6,7-tetrahydro-benzo[b]thiophene-3-carboxylic acid amide], the half-inhibitory concentration (IC50) is less than 0.1 µM.

`NC(=O)c1c(NC(=O)C2CC2)sc2c1CCC/C2=N\OCc1ccccc1` [Compound D72, E-7-Benzyloxyimino-2-(cyclopropanecarbonyl-amino)-4,5,6,7-tetrahydro-benzo[b]thiophene-3-carboxylic acid amide]: the IC50 is less than 0.1 µM.

As to `CO/N=C1/CCCc2c1sc(NC(=O)C1CC1)c2C(N)=O` [Compound D88, Z-2-(Cyclopropanecarbonyl-amino)-7-methoxyimino-4,5,6,7-tetrahydro-benzo[b]thiophene-3-carboxylic acid amide], the IC50 was less than 0.1 µM.

For `CC1OCc2sc(NC(=O)C3CC3)c(C(N)=O)c21` (stereo not drawn) [Compound D96, 2-(Cyclopropanecarbonyl-amino)-4-methyl-4,6-dihydro-thieno[2,3-c]furan-3-carboxylic acid amide], the IC50 was in the range of 1.1 to 10 µM.

For `COc1ccc(NC(=O)Nc2sc3c(c2C(N)=O)CCC(=O)C3)cc1` [Compound D106, 2-[3-(4-Methoxy-phenyl)-ureido]-6-oxo-4,5,6,7-tetrahydro-benzo[b]thiophene-3-carboxylic acid amide], the IC50 lay within 0.1 to 1 µM.

Take `NC(=O)c1c(NC(=O)Nc2ccc(I)cc2)sc2c1CCC1(C2)OCCO1` [Compound D175, 2-({[(4-Iodophenyl)amino]carbonyl}amino)-4,7-dihydro-5H-spiro[1-benzothiophene-6,2′-[1,3]dioxolane]-3-carboxamide]: the IC50 fell in the range of 0.1 to 1 µM.

As to `NC(=O)c1c(NC(=O)C2CC2)sc2c1CCC2` [Compound D196, 2-(Cyclopropanecarbonyl-amino)-5,6-dihydro-4H-cyclopenta[b]thiophene-3-carboxylic acid amide], the IC50 was less than 0.1 µM.

On to `NC(=O)c1c(NC(=O)Nc2ccc3c(c2)OCO3)sc2c1CCC(O)C2` (stereo not drawn) [Compound D212, 2-(3-Benzo[1,3]dioxol-5-yl-ureido)-6-hydroxy-4,5,6,7-tetrahydro-benzo[b]thiophene-3-carboxylic acid amide], for which the IC50 lay in the range of 0.1 to 1 µM.

The IC50 is the point on the concentration scale where inhibition reaches its midpoint.
